Legend:
[1] = target: T1, hERG cardiac potassium channel (Homo sapiens, UniProt Q12809); assay: hERG screening assay (automated patch clamp, CHO-hERG cells); type: cell-based; settings: CHO crelox hERG cells (CHO cells that express hERG), whole-cell patch clamp, 35-37° C.
T1 construct: Evotec (cryopreserved) ATCC PTA-6812; host or cells: CHO crelox hERG cell line (Chinese hamster)
Source text: In the drug development process of small molecules, one of the most frequent adverse side effects, leading to the failure of drugs, is the cardiac arrhythmias. Such failure is often related to the capacity of the drug to inhibit the human ether-à-go-go-related gene (hERG) cardiac potassium channel. Having no or low inhibition of the hERG cardiac potassium channel is therefore considered as beneficial.
The CHO crelox hERG cell line (ATCC reference Nr. PTA-6812, female Chinese hamster cells) was generated and validated at Roche. Ready-to-use frozen instant CHO-hERG cells were cryopreserved at Evotec (Germany) and used directly in the experiments.
The extracellular solution contains (in mM): NaCl 150; KCl 4; CaCl2 1; MgCl2 1; HEPES 10; pH 7.2-7.4 with NaOH, osmolarity 290-330 mOsm. The internal solution contains (in mM): KCl, 10; KF, 100; NaCl, 10; HEPES, 10; EGTA, 20; pH=7.0-7.4 with KOH, osmolarity 260-300 mOsm.
The effects of a compound on hERG K+-currents parameters will be evaluated at 2 concentrations in at least 4 cells.
The hERG test is performed using automated patch clamp system SynchroPatch® 384 (Nanion Technologies GmbH, Germany). K+ currents are measured with the patch-voltage-clamp technique in the whole-cell configuration at 35-37° C.
The amplitudes of IKhERG were recorded in each concentration of drug and they were compared to the vehicle control values (taken as 100%) to define fractional blocks. The concentration-response data were fitted with the following relationship:
Concentration-response curves were fitted by non-linear regression analysis using EworkBook suite (ID Business Solutions Ltd, UK). Data fit was done with the 4 Parameter Logistic Model (fit=(A+(B/(1+((x/C)^D)))), where A=0 and B=100).

NLRP3 [2] = target: T2, NLRP3 (Homo sapiens, UniProt Q96P20); assay: THP-1 cells pyroptosis assay; type: cell-based; design: Seed THP-1 cells (25,000 cells/well) containing 1.0 μg/ml LPS; host or cells: THP-1 cells, LPS-primed, nigericin-stimulated; settings: LPS 1.0 μg/ml, nigericin 5 μM, resazurin readout
T2 sequence (Q96P20 whole entry): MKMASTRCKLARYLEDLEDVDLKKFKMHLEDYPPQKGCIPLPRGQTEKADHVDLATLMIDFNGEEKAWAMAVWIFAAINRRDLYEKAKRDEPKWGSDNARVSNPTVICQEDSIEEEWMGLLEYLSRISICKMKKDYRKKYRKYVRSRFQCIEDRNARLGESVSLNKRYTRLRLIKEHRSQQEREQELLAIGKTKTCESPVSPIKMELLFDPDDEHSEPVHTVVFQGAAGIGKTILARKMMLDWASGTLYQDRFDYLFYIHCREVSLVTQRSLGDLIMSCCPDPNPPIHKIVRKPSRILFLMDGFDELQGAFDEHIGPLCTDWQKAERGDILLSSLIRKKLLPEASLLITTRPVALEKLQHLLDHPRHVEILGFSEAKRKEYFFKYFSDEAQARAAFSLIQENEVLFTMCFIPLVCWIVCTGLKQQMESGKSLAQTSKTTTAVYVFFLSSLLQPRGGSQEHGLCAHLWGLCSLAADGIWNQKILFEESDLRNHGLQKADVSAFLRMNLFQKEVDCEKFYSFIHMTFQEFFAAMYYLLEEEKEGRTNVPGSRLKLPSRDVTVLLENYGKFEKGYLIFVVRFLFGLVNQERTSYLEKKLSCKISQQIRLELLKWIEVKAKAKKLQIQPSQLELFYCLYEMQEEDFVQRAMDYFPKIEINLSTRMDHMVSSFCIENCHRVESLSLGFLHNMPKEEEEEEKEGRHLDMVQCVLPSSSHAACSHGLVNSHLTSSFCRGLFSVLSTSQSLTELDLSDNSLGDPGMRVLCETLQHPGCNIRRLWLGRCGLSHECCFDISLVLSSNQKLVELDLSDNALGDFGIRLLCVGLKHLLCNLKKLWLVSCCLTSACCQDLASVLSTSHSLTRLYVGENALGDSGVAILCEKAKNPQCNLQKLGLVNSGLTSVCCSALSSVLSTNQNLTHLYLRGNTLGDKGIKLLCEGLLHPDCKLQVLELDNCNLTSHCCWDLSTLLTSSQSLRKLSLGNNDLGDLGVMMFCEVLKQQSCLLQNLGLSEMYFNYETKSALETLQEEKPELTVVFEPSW
Source text: It is well established that the activation of NLRP3 leads to cell pyroptosis and this feature plays an important part in the manifestation of clinical disease (Yan-gang Liu et al., Cell Death & Disease, 2017, 8(2), e2579; Alexander Wree et al., Hepatology, 2014, 59(3), 898-910; Alex Baldwin et al., Journal of Medicinal Chemistry, 2016, 59(5), 1691-1710; Ema Ozaki et al., Journal of Inflammation Research, 2015, 8, 15-27; Zhen Xie & Gang Zhao, Neuroimmunology Neuroinflammation, 2014, 1(2), 60-65; Mattia Cocco et al., Journal of Medicinal Chemistry, 2014, 57(24), 10366-10382; T. Satoh et al., Cell Death & Disease, 2013, 4, e644). Therefore, it is anticipated that inhibitors of NLRP3 will block pyroptosis, as well as the release of pro-inflammatory cytokines (e.g. […]) from the cell.
THP-1 cells (ATCC #TIB-202) were grown in RPMI containing L-glutamine (Gibco #11835) supplemented with 1 mM sodium pyruvate (Sigma #S8636) and penicillin (100 units/ml)/streptomycin (0.1 mg/ml) (Sigma #P4333) in 10% Fetal Bovine Serum (FBS) (Sigma #F0804). The cells were routinely passaged and grown to confluency (˜10^6 cells/ml). On the day of the experiment, THP-1 cells were harvested and resuspended into RPMI medium (without FBS). The cells were then counted and viability (>90%) checked by Trypan blue (Sigma #T8154). Appropriate dilutions were made to give a concentration of 625,000 cells/ml. To this diluted cell solution was added LPS (Sigma #L4524) to give a […] Final Assay Concentration (FAC). 40 μl of the final preparation was aliquoted into each well of a 96-well plate. The plate thus prepared was used for compound screening.
The following method step-by-step assay was followed for compound screening.
Seed THP-1 cells (25,000 cells/well) containing 1.0 μg/ml LPS in 40 μl of RPMI medium (without FBS) in 96-well, black walled, clear bottom cell culture plates coated with poly-D-lysine (VWR #734-0317)
Add 5 μl compound (8 points half-log dilution, with 10 μM top dose) or vehicle (DMSO 0.1% FAC) to the appropriate wells
(§1) Incubate for 3 hours at 37° C., 5% CO2
Add 5 μl nigericin (Sigma #N7143) (FAC 5 μM) to all wells
(§2) Incubate for 1 hr at 37° C., 5% CO2
At the end of the incubation period, spin plates at 300 xg for 3 mins and remove supernatant
Then add 50 μl of resazurin (Sigma #R7017) (FAC 100 μM resazurin in RPMI medium without FBS) and incubate plates for a further 1-2 hours at 37° C. and 5% CO2
Plates were read in an Envision reader at Ex 560 nm and Em 590 nm
(§3) IC50 data is fitted to a non-linear regression equation (log inhibitor vs response-variable slope 4-parameters)

NLRP3 [3] = target: T2, NLRP3; assay: Human whole blood IL-1β release assay; type: cell-based; design: Human whole blood in Li-heparin tubes was obtained from healthy donors; from tissue; host or cells: human whole blood from healthy donors; settings: LPS, nigericin 10 μM, IL-1β by AlphaLisa
Procedure: For systemic delivery, the ability to inhibit NLRP3 when the compounds are present within the bloodstream is of great importance. For this reason, the NLRP3 inhibitory activity of a number of compounds in human whole blood was investigated in accordance with the following protocol.
Human whole blood in Li-heparin tubes was obtained from healthy donors from a volunteer donor panel.
Plate out 80 μl of whole blood containing […] of LPS in 96-well, clear bottom cell culture plate (Corning #3585)
Add 10 μl compound (8 points half-log dilution with 10 μM top dose) or vehicle (DMSO 0.1% FAC) to the appropriate wells
as §1
Add 10 μl nigericin (Sigma #N7143) (10 μM FAC) to all wells
as §2
At the end of the incubation period, spin plates at 300 xg for 5 mins to pellet cells and remove 20 μl of supernatant and add to 96-well v-bottom plates for IL-1β analysis (note: these plates containing the supernatants can be stored at −80° C. to be analysed at a later date)
IL-1β was measured according to the manufacturer protocol (Perkin Elmer-AlphaLisa IL-1 Kit AL220F-5000)
as §3

human P-gp = target: T3, human P-gp (Homo sapiens, UniProt P08183); assay: Transcellular human P-gp assay (transfected LLC-PK1 cells); type: in vitro ADME; settings: LLC-PK1 cells over-expressing human P-gp
T3 construct: expressed in transfected cells; host or cells: LLC-PK1 (porcine kidney epithelial cells)
T3 sequence (P08183 whole entry): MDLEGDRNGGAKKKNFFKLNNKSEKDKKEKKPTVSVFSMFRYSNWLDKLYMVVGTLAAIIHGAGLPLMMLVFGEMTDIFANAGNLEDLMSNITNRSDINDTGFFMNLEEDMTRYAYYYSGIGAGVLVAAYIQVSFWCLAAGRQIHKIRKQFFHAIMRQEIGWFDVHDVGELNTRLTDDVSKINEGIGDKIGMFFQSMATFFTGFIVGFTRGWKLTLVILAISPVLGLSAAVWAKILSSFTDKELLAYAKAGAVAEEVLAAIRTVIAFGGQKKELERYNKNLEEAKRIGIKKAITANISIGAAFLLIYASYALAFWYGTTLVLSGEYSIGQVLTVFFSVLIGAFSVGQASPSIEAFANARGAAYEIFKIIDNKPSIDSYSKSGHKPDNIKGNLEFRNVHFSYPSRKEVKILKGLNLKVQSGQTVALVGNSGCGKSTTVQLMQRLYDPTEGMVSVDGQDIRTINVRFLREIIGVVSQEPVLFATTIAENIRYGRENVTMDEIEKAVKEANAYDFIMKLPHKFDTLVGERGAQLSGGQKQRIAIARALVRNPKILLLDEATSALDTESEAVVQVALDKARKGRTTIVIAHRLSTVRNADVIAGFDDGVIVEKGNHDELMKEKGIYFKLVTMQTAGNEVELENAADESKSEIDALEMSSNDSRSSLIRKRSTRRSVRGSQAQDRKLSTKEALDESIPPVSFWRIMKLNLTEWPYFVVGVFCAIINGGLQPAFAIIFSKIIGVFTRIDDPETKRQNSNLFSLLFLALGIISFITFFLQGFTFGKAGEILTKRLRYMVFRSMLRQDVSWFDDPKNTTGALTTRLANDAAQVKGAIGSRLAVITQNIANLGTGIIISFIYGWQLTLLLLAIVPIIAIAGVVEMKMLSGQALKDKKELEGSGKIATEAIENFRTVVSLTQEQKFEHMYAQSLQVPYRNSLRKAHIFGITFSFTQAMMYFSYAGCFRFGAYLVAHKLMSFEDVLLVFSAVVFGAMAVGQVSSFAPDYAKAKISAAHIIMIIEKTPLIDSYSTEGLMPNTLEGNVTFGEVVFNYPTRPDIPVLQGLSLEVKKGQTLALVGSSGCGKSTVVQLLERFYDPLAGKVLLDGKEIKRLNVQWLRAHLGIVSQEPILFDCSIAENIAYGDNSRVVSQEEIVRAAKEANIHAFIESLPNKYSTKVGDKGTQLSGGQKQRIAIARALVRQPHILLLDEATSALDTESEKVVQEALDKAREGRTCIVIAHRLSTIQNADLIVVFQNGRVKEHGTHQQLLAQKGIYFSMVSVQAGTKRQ
Source text: The general assay uses transfected LLC-PK1 cells (porcine kidney epithelial cells) over-expressing human or mouse P-gp, cultured on 96 well semi-permeable filter membrane plates, where they form a polarized monolayer with tight junctions, and act as a barrier between the apical and basolateral compartment.
P-gp is expressed in the apical-facing membrane of the monolayer. […] J. Pharmacol. Exp Ther., 2021, 376, 322-329.

T1 sequence (Q12809 whole entry): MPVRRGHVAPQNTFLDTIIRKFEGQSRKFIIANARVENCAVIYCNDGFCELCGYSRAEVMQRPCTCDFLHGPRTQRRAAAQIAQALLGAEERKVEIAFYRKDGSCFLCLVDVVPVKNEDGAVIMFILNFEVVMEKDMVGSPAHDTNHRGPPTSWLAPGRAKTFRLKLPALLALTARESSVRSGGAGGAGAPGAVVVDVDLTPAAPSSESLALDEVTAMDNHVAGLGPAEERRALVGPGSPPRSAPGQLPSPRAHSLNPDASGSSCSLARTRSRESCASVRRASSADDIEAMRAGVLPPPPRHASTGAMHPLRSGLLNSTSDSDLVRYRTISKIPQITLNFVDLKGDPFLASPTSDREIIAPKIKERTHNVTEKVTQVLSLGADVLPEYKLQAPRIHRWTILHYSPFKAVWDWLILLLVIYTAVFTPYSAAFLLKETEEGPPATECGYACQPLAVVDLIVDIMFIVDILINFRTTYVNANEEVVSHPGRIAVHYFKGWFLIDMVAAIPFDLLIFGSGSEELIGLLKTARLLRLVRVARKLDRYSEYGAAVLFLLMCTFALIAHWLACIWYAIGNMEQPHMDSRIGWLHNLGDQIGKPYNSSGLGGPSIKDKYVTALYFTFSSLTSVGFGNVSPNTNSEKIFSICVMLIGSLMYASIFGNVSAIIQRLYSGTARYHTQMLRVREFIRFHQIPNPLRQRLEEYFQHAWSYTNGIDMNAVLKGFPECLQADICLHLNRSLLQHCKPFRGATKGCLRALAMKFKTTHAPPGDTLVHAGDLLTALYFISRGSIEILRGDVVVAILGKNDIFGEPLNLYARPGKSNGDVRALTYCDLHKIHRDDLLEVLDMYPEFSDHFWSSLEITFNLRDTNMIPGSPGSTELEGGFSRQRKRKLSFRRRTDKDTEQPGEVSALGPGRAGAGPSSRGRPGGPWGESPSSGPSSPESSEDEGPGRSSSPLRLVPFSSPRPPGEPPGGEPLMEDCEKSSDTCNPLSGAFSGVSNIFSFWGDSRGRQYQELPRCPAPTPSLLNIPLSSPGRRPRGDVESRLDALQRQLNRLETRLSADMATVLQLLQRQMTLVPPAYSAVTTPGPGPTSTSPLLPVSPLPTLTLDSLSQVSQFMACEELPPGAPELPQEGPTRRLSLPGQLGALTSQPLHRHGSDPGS

Structure (SMILES)	IC20 [1]	IC50 (NLRP3 [2])	IC50 (NLRP3 [3])	efflux ratio (human P-gp; read-out: ER (efflux ratio))	Papp (human P-gp; read-out: Permeability)
COCc1cc(C#N)cc(O)c1-c1cnc2oc(N[C@@H]3CCCN(CCO)C3)nc2n1 [Example 15, 3-Hydroxy-4-[2-[[(3R)-1-(2-hydroxyethyl)-3-piperidyl]amino]oxazolo[4,5-b]pyrazin-5-yl]-5-(methoxymethyl)benzonitrile;2,2,2-trifluoroacetic Acid]	> 10000 nM	34 nM	33 nM		
Cc1cc2c(c(O)c1-c1cnc3oc(N[C@@H]4CCCN(CCO)C4)nc3n1)CCC2 [Example 18, 5-[2-[[(3R)-1-(2-Hydroxyethyl)-3-piperidyl]amino]oxazolo[4,5-b]pyrazin-5-yl]-6-methyl-indan-4-ol]	6300 nM	2 nM			
COCc1cc2c(c(O)c1-c1ccc3oc(N[C@@H]4CCCN(CCO)C4)nc3n1)CCO2 [Example 12, 5-[2-[[(3R)-1-(2-Hydroxyethyl)-3-piperidyl]amino]oxazolo[4,5-b]pyridin-5-yl]-6-(methoxymethyl)-2,3-dihydrobenzofuran-4-ol]	> 10000 nM	8 nM	15 nM		
Cc1cc2c(c(O)c1-c1ccc3oc(N[C@@H]4CCCN(CCO)C4)nc3n1)CCO2 [Example 14, 5-[2-[[(3R)-1-(2-Hydroxyethyl)-3-piperidyl]amino]oxazolo[4,5-b]pyridin-5-yl]-6-methyl-2,3-dihydrobenzofuran-4-ol]		0.6 nM	22 nM	4	13.5 ×10⁻⁶ cm/s
Cc1cc2c(c(O)c1-c1cnc3oc(N[C@@H]4CCCN(CCO)C4)nc3n1)CCO2 [Example 13, 5-[2-[[(3R)-1-(2-Hydroxyethyl)-3-piperidyl]amino]oxazolo[4,5-b]pyrazin-5-yl]-6-methyl-2,3-dihydrobenzofuran-4-ol]		0.8 nM	19 nM		
COCc1cc2c(c(O)c1-c1cnc3oc(N[C@@H]4CCCN(CCO)C4)nc3n1)CCO2 [Example 11, 5-[2-[[(3R)-1-(2-Hydroxyethyl)-3-piperidyl]amino]oxazolo[4,5-b]pyrazin-5-yl]-6-(methoxymethyl)-2,3-dihydrobenzofuran-4-ol]		4 nM	8 nM		
COc1cc(-c2c(C)cc(C#N)cc2O)nc2nc(N[C@@H]3CCCN(CCO)C3)oc12 [Example 8, 3-Hydroxy-4-[2-[[(3R)-1-(2-hydroxyethyl)-3-piperidyl]amino]-7-methoxy-oxazolo[4,5-b]pyridin-5-yl]-5-methyl-benzonitrile;2,2,2-trifluoroacetic Acid]		11 nM	28 nM		
CCN1C[C@@H](O)C[C@@H](Nc2nc3nc(-c4c(C)cc(C#N)cc4O)cnc3o2)C1 [Example 2, 4-[2-[[(3R,5S)-1-Ethyl-5-hydroxy-3-piperidyl]amino]oxazolo[4,5-b]pyrazin-5-yl]-3-hydroxy-5-methyl-benzonitrile;2,2,2-trifluoroacetic Acid]		4.3 nM	19.6 nM		
COCc1cc(C#N)cc(O)c1-c1cc(OC)c2oc(N[C@@H]3CCCN(CCO)C3)nc2n1 [Example 20, 3-Hydroxy-4-[2-[[(3R)-1-(2-hydroxyethyl)-3-piperidyl]amino]-7-methoxy-oxazolo[4,5-b]pyridin-5-yl]-5-(methoxymethyl)benzonitrile]		75 nM	68 nM		

— patent US20260092073A1, “NOVEL COMPOUNDS” (Hoffmann-La Roche Inc., priority 2023, published 2026)
